“And” between values parts separate entries of the source, which are not always exact repeats. Equal entries are not always repeated.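 Protocol summary: plate cells (96-well), add compound at 5 concentrations, incubate 48 h, interpolate endpoints linearly. GI50 = concentration required for 50% inhibition of growth. At the TGI there is no net growth.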
Experiments:
Test in all cases: inhibition of tumour cell growth, NCI panel, 48 h
[1] = system: A549 NSCLC
[2] = system: SK-OV-3 ovarian
[3] = system: NCI-H23 lung
[4] = system: OVCAR-5 ovarian
[5] = system: SF-268 CNS
[6] = system: SNB-75 CNS
[7] = system: MALME-3M melanoma
[8] = system: MCF7 breast
[9] = system: DU-145 prostate
[10] = system: SN12C renal

Row | Structure (SMILES) | TGI [1] | TGI [2] | TGI [3] | TGI [4] | TGI [5] | TGI [6] | TGI [7] [µM] | TGI [8] | TGI [9] | TGI [10] | GI50 [8] [µM] | GI50 [1] | GI50 [2] | GI50 [3] | GI50 [4] | GI50 [5] | GI50 [6] | GI50 [9] | GI50 [10]
1 | N=c1oc2ccc([N+](=O)[O-])cc2cc1C(=O)Nc1ccccn1 | > 100 µM | > 100 µM | > 100 µM | > 100 µM | > 100 µM | > 100 µM | 77.6 | > 100 µM | > 100 µM | > 100 µM | – | – | – | – | – | – | – | – | –
2 | O=CN(O)CC(=O)O.[Ni] | – | > 100 µM | > 100 µM | > 100 µM | > 100 µM | > 100 µM | > 100 | > 100 µM | > 100 µM | > 100 µM | – | – | – | – | – | – | – | – | –
3 | CCOC(=O)CCC(NC(=O)c1ccc(OCc2ccc3nc(OC)c(OC)nc3c2)cc1)C(=O)OCC (centres undefined) | > 100 µM | > 100 µM | > 100 µM | > 100 µM | > 100 µM | > 100 µM | 69.2 | > 100 µM | > 100 µM | > 100 µM | – | – | – | – | – | – | – | – | –
4 | NC(CCC(=O)NC(CSC(=O)N(O)c1ccc(Cl)cc1)C(=O)NCC(=O)O)C(=O)O (centres undefined) | > 0.5 µM | > 0.5 µM | > 0.5 µM | > 0.5 µM | > 0.5 µM | > 0.5 µM | – | > 0.5 µM | > 0.5 µM | > 0.5 µM | – | – | – | – | – | – | – | – | –
5 | CC(=O)N1N=C(c2ccccc2Nc2ccccc2C2=NN(C(C)=O)C(c3ccccc3)O2)OC1c1ccccc1 (centres undefined) | > 100 µM | > 100 µM | > 100 µM | > 100 µM | – | – | > 100 | > 100 µM | > 100 µM | > 100 µM | – | – | – | – | – | – | – | – | –
6 | Cc1cc(O)c2c(c1)C(=O)C=C(Br)C2=O | > 60.5 µM | > 100 µM | 35.5 µM | 29.7 µM | 98.9 µM | 31 µM | 17.2 | 23.4 µM | 17 µM | 31 µM | – | – | – | – | – | – | – | – | –
7 | O=C(Nc1ccc(Cl)cc1Cl)c1cc2nc3ccccc3c(=O)n2c2ccccc12 | > 10 µM | > 10 µM | > 10 µM | > 10 µM | > 10 µM | – | > 10 | > 10 µM | > 10 µM | – | – | – | – | – | – | – | – | – | –
8 | O=C1CC(NC2CC(=O)c3c(Br)sc(Br)c32)c2c(Br)sc(Br)c21 (centres undefined) | 38.9 µM | 32.6 µM | 28.3 µM | 41.4 µM | 26.2 µM | 31.4 µM | 5.62 | 8.44 µM | 16.5 µM | 3.42 µM | – | – | – | – | – | – | – | – | –
9 | CC(C)(C)C(=O)CC(=O)C(F)(F)C(F)(F)C(F)(F)F.CC(C)(C)C(=O)CC(=O)C(F)(F)C(F)(F)C(F)(F)F.CC(C)(C)C(=O)CC(=O)C(F)(F)C(F)(F)C(F)(F)F.[Er] | > 100 µM | > 100 µM | > 100 µM | > 100 µM | > 100 µM | > 100 µM | > 100 | > 100 µM | > 100 µM | > 100 µM | > 100 | – | – | – | – | – | – | – | –
10 | O=C(Nc1ccccc1)c1cc2c(cc1Cl)SC(NNCCO)=NS2(=O)=O | – | > 100 µM | > 100 µM | – | > 100 µM | > 100 µM | – | > 100 µM | > 100 µM | – | – | – | – | – | – | – | – | – | –
11 | O=[N+]([O-])c1ccc(OP(=O)(O)OCC2OC(CP(=O)(O)O)C(O)C2O)cc1 (centres undefined) | > 100 µM | – | > 100 µM | > 100 µM | > 100 µM | – | – | > 100 µM | > 100 µM | > 100 µM | – | – | – | – | – | – | – | – | –
12 | O=C(O)c1cccc(S(=O)(=O)NN2C(=O)CSC2c2ccccc2Cl)c1 (centres undefined) | > 100 µM | > 100 µM | > 100 µM | > 100 µM | > 100 µM | > 100 µM | > 100 | > 100 µM | > 100 µM | > 100 µM | – | – | – | – | – | – | – | – | –
13 | CSc1ncc2c(C#N)c3ccccn3c(=O)c2n1 | > 100 µM | > 100 µM | > 100 µM | > 100 µM | > 100 µM | > 100 µM | > 100 | > 100 µM | > 100 µM | > 100 µM | – | – | – | – | – | – | – | – | –
14 | Cc1ccccc1C(=O)NC(O)(C(F)(F)F)C(F)(F)F | > 100 µM | > 100 µM | > 100 µM | > 100 µM | > 100 µM | 3.17 µM | > 100 | > 100 µM | > 100 µM | > 100 µM | – | – | – | – | – | – | – | – | –
15 | Clc1cc2nnn(C3CCCCO3)c2cc1Cl (centres undefined) | > 100 µM | > 100 µM | > 100 µM | > 100 µM | > 100 µM | > 100 µM | > 100 | > 100 µM | > 100 µM | > 100 µM | – | – | – | – | – | – | – | – | –
16 | CCn1c(SCC(=O)NNC(=S)Nc2ccc(Cl)cc2)nc2ccccc2c1=O | > 100 µM | > 100 µM | > 100 µM | > 100 µM | > 100 µM | > 100 µM | > 100 | > 100 µM | > 100 µM | > 100 µM | – | – | – | – | – | – | – | – | –
17 | N#Cc1c(N)nc2c(N=Nc3ccccc3)c(N)nn2c1Nc1ccccc1 | 46.9 µM | – | 21.6 µM | 57.7 µM | 56.9 µM | 70.3 µM | 49.7 | – | 39.8 µM | 27.7 µM | – | – | – | – | – | – | – | – | –
18 | c1csc(-c2cscc2-c2cccs2)c1 | > 100 µM | > 100 µM | > 100 µM | > 100 µM | > 100 µM | > 100 µM | – | 49.5 µM | 8.22 µM | > 100 µM | – | – | – | – | – | – | – | – | –
19 | C=C(C)C1Cc2c(cc(OC)c3c(=O)c4ccccc4n(C)c23)O1 (centres undefined) | > 100 µM | > 100 µM | > 100 µM | > 100 µM | > 100 µM | > 100 µM | > 100 | – | – | > 100 µM | – | – | – | – | – | – | – | – | –
20 | COc1cc(CC(C)N[C@@H](C)c2ccccc2)cc(OC)c1 (some centres undefined) | 27.1 µM and > 100 µM | 25.5 µM and > 100 µM | 27.3 µM and > 100 µM | 26 µM and > 100 µM | 25.8 µM and > 100 µM | 12.9 µM and > 100 µM | – | 20.1 µM and > 100 µM | 25.2 µM and > 100 µM | 24.2 µM and > 100 µM | – | 13 µM and > 100 µM | 12.9 µM and > 100 µM | 11.6 µM and > 100 µM | 12.9 µM and > 100 µM | 12.3 µM and > 100 µM | 2.9 µM and 24.7 µM | 12.6 µM and > 100 µM | 11.8 µM and > 100 µM
21 | OCCSCc1cc(Cl)cc(Cl)c1O | > 100 µM | > 100 µM | > 100 µM | > 100 µM | > 100 µM | – | > 100 | > 100 µM | > 100 µM | > 100 µM | – | – | – | – | – | – | – | – | –

— PubChem BioAssay (NCI)
